Assay results taken from patent publication US7642367B2, “Diamino-functional chalcones” (Lica Pharmaceuticals A/S, priority 2002, dated 2010).
In brackets after ≈: the same amount, converted by molar mass.

Columns and labels:
[1] = tested on: Plasmodium falciparum 3D7; assay: Plasmodium falciparum assay (3H-phenylalanine labelling); type: cell-based; conditions: Plasmodium falciparum 3D7 (Table 2); read-out: IC50
[2] = Determination of solubility in phosphate buffer pH 7.4; type: physicochemical; conditions: aqueous buffer at pH 7.4
Experimental: Solubility of the compounds was determined by preparing a saturated solution of compound in 0.3 M phosphate buffer (pH 7.4±0.3) in a brown glass tube. The suspensions were rotated slowly for 24 hours. Aliquots were centrifuged for 10 minutes at 14.000 rpm and supernatants were diluted in 40% (v/v) acetonitrile in water prior to HPLC analysis. Concentrations of analytes were quantified against a standard curve and used as term of solubility.
The HPLC-UV method used for the assessment of solubility is the same as used in the in vitro metabolism assay.

L. major promastigotes = assay: Leishmania promastigote assay (3H-thymidine)
[3] = Determination of metabolic stability (liver microsomes); type: in vitro ADME, Wistar rat; conditions: rat liver microsomes, 20 μM, 15 min at 37° C.
Experimental: incubations were performed with Wistar rat liver microsomes (0.25 mg/ml) in 2% sodium bicarbonate solution. NADP (0.13 mg/ml), glucose-6-phosphate (0.63 mg/ml) and glucose-6-phosophate dehydrogenase (0.38 units/ml) were used as NADPH generation system and UDPGA (0.48 mg/ml) was added to include the phase II reaction, glucuronic acid conjugation, in the assay. After 5 minutes of pre-incubation the reaction was started by addition of the test article to give a final concentration of 20 μM. Samples were incubated for 15 min at 37° C. and the reactions were terminated by addition of equal volumes of acetonitrile. Blank incubations were performed at the same concentration but without addition of microsomes. Both blank and microsome-containing samples were made in replicats of three. Prior to analysis samples were centrifuged for 10 min. at 3500 rpm, HPLC system:
Initial conditions were 40% mobile phase A (acetonitrile) and 60% mobile phase B (10 mM ammonium acetate pH 9.5). During the first 20 minutes, the mobile phase was changed via a linear gradient to 90% A and 10% B. This was followed by a 5 minutes linear gradient to initial conditions, which were maintained for 5 min. The flow rate was 0.20 ml/min and injection volume 10 μl.

[4] = tested on: Staphylococcus aureus ATCC29213; assay: MIC determination in broth microdilution assay
[5] = tested on: Staphylococcus aureus ATCC33591 (resistant to methicillin); assay: MIC determination in broth microdilution assay
[6] = tested on: Staphylococcus intermedius #2357 (clinical isolate); assay: MIC determination in broth microdilution assay
[7] = tested on: Enterococcus faecalis ATCC29212; assay: MIC determination in broth microdilution assay
[8] = tested on: Enterococcus faecium #17501 (vancomycin-resistant clinical isolate); assay: MIC determination in broth microdilution assay
[9] = tested on: Streptococcus pneumoniae #998 (clinical isolate); assay: MIC determination in broth microdilution assay
Eschericia coli ESS = assay: MIC determination in broth microdilution assay; conditions: H: Eschericia coli ESS; NA: no activity
[10] = tested on: Bacteroides fragilis, Clostridium perfringens, Clostridium difficele; type: cell-based; conditions: single concentration of compound (100 μM)
[11] = A: Staphylococcus aureus ATCC29213, NA: no activity
[12] = B: Staphylococcus aureus ATCC33591 (resistant to methicillin), NA: no activity
[13] = C: Staphylococcus intermedius #2357, NA: no activity
[14] = D: Enterococcus faecalis ATCC29212, NA: no activity
[15] = E: Enterococcus faecium #17501 (vancomycin-resistant), NA: no activity
[16] = F: Streptococcus pneumoniae #998, NA: no activity

For `Cc1ccccc1-c1ccc(N2CCN(C)CC2)c(/C=C/C(=O)c2ccc(O)cc2)c1` [B209, (E)-1-(4-Hydroxy-phenyl)-3-[2′-methyl-4-(4-methyl-piperazin-1-yl)-biphenyl-3-yl]-propenone], the IC50 [1] was 300 nM.
`CN(C)CCCNc1cc(Br)cc(/C=C/C(=O)c2ccccc2CN(C)C)c1` [B126, (E)-3-[3-Bromo-5-(3-dimethylamino-propylamino)-phenyl]-1-(2-dimethylaminomethyl-phenyl)-propenone] gave a Solubility [2] of 8300 µg/mL (≈ 18.7 mM).
Work on `COc1ccccc1-c1ccc(/C=C/C(=O)c2ccccc2CN(C)C)c(N2CCN(C)CC2)c1` [B096, (E)-1-(2-Dimethylaminomethyl-phenyl)-3-[2′-methoxy-3-(4-methyl-piperazin-1-yl)-biphenyl-4-yl]-propenone] yielded an IC50 (L. major promastigotes; L. major) of 1200 nM.
In the case of `COc1ccccc1-c1ccc(N2CCN(C)CC2)c(/C=C/C(=O)c2ccccc2NS(=O)(=O)c2ccccc2)c1` [B185, (E)-N-(2-{3-[2′-Methoxy-4-(4-methyl-piperazin-1-yl)-biphenyl-3-yl]-acryloyl}-phenyl)-benzenesulfonamide], the “Metabolic turn-over in vitro” value [3] is reported as 0% and the IC50 (L. major promastigotes; Leishmania major) is reported as 200 nM.
In the case of `COc1ccc(/C=C/C(=O)c2ccccc2N(C)CCN(C)C)cc1` [B023, (E)-1-{2-[(2-Dimethylamino-ethyl)-methyl-amino]-phenyl}-3-(4-methoxy-phenyl)-propenone], the Solubility [2] is reported as 30600 µg/mL (≈ 90.4 mM).
`COc1ccc(C(=O)/C=C/c2cc(-c3ccccc3OC)ccc2N2CCN(C)CC2)c(F)c1` [B083, (E)-1-(2-Fluoro-4-methoxy-phenyl)-3-[2′-methoxy-4-(4-methyl-piperazin-1-yl)-biphenyl-3-yl]-propenone] showed an IC50 (L. major promastigotes; L. major) of 500 nM, an MIC [4, 11] of 4.7 µM (≈ 2.16 µg/mL) and an MIC [5, 12] of 9.4 µM (≈ 4.33 µg/mL). The MIC [6, 13] was 9.4 µM (≈ 4.33 µg/mL), the MIC [7, 14] was 18.8 µM (≈ 8.66 µg/mL) and the MIC [8, 15] was 9.4 µM (≈ 4.33 µg/mL). For the same compound, the MIC [9, 16] was 37.5 µM (≈ 17.3 µg/mL) and the MIC (Eschericia coli ESS) was 9.4 µM (≈ 4.33 µg/mL).
With `CCCCN(CCCC)c1cccc(/C=C/C(=O)c2ccccc2NCCCN(C)C)c1` [B033, (E)-3-(3-Dibutylamino-phenyl)-1-[2-(3-dimethylamino-propylamino)-phenyl]-propenone] the “activity against anaerobic bacteria” value [10] was “activity against all microorganisms within the test panel”.
For `CN(C)CCNc1ccc(C(=O)/C=C/c2ccc(Cl)cc2Cl)cc1` [B022, (E)-3-(2,4-Dichloro-phenyl)-1-[4-(2-dimethylamino-ethylamino)-phenyl]-propenone], the “activity against anaerobic bacteria” value [10] was “activity against all microorganisms within the test panel” and the IC50 (L. major promastigotes; L. major) was 800 nM.
With `CN(C)CCNc1ccc(C(=O)/C=C/c2ccc3ccccc3n2)cc1` [B067, (E)-1-[4-(2-Dimethylamino-ethylamino)-phenyl]-3-quinolin-2-yl-propenone] the IC50 (L. major promastigotes; L. major) was 900 nM.
`CN(C)Cc1ccccc1C(=O)/C=C/c1cc(N2CCN(C)CC2)ccc1Br` [B124, (E)-3-[2-Bromo-5-(4-methyl-piperazin-1-yl)-phenyl]-1-(2-dimethylaminomethyl-phenyl)-propenone] showed a Solubility [2] of 2000 µg/mL (≈ 4.52 mM).
With `Cc1cc(C)cc(-c2ccc(N(C)CCN(C)C)c(/C=C/C(=O)c3cccc(NCCN(C)C)c3)c2)c1` [B113, (E)-1-[3-(2-Dimethylamino-ethylamino)-phenyl]-3-{4-[(2-dimethylamino-ethyl)-methyl-amino]-3′,5′-dimethyl-biphenyl-3-yl}-propenone] the “Metabolic turn-over in vitro” value [3] was 4%.
In the case of `COc1ccc(C(=O)/C=C/c2cc(-c3cc(C)cc(C)c3)ccc2N2CCN(C)CC2)c(F)c1` [B182, (E)-3-[3′,5′-Dimethyl-4-(4-methyl-piperazin-1-yl)-biphenyl-3-yl]-1-(2-fluoro-4-methoxy-phenyl)-propenone], the “Metabolic turn-over in vitro” value [3] is reported as 2%, the MIC [4, 11] is reported as 4.7 µM (≈ 2.16 µg/mL) and the MIC [5, 12] is reported as 4.7 µM (≈ 2.16 µg/mL). The MIC [6, 13] was 4.7 µM (≈ 2.16 µg/mL), the MIC [7, 14] was 9.4 µM (≈ 4.31 µg/mL) and the MIC [8, 15] was 4.7 µM (≈ 2.16 µg/mL). The MIC [9, 16] was 18.8 µM (≈ 8.62 µg/mL) and the MIC (Eschericia coli ESS) was 75 µM (≈ 34.4 µg/mL).
With `CCCCc1ccc(/C=C/C(=O)c2ccc(N(C)CCN(C)C)cc2)cc1` [B060, (E)-3-(4-Butyl-phenyl)-1-{4-[(2-dimethylamino-ethyl)-methyl-amino]-phenyl}-propenone] the “activity against anaerobic bacteria” value [10] was “activity against all microorganisms within the test panel”.
For `COc1ccccc1-c1ccc(/C=C/C(=O)c2ccccc2CN(C)CCN(C)C)c(N2CCN(C)CC2)c1` [B216, (E)-1-(2-{[(2-Dimethylamino-ethyl)-methyl-amino]-methyl}-phenyl)-3-[2′-methoxy-3-(4-methyl-piperazin-1-yl)-biphenyl-4-yl]-propenone], the “Metabolic turn-over in vitro” value [3] was 6%.
In the case of `CN(C)CCNc1ccc(C(=O)/C=C/c2cc(C(F)(F)F)cc(C(F)(F)F)c2)cc1` [B046, (E)-3-(3,5-Bis-trifluoromethyl-phenyl)-1-[4-(2-dimethylamino-ethylamino)-phenyl]-propenone], the “activity against anaerobic bacteria” value [10] is reported as “activity against all microorganisms within the test panel”.
With `CCCN(CCC)c1cccc(/C=C/C(=O)c2ccccc2NCCN(C)C)c1` [B035, (E)-1-[2-(2-Dimethylamino-ethylamino)-phenyl]-3-(3-dipropylamino-phenyl)-propenone] the “activity against anaerobic bacteria” value [10] was “activity against all microorganisms within the test panel”.
In the case of `CCCCN(CCCC)c1ccc(/C=C/C(=O)c2cccc(NC(=O)CN(C)C)c2)cc1` [B089, (E)-N-{3-[3-(4-Dibutylamino-phenyl)-acryloyl]-phenyl}-2-dimethylamino-acetamide], the MIC ([4]; Staphylococcus aureus, ATCC29213) is reported as 4.7 µM (≈ 2.05 µg/mL), the MIC ([5]; Staphylococcus aureus, ATCC33591) is reported as 4.7 µM (≈ 2.05 µg/mL) and the MIC ([6]; Staphylococcus intermedius) is reported as 4.7 µM (≈ 2.05 µg/mL). The MIC ([7]; Enterococcus faecalis, ATCC29212) was 9.4 µM (≈ 4.09 µg/mL), the MIC ([8]; Enterococcus faecium) was 9.4 µM (≈ 4.09 µg/mL) and the MIC ([9]; Streptococcus pneumoniae) was 37.5 µM (≈ 16.3 µg/mL).
Compound `Cc1ccccc1-c1ccc(N(C)CCN(C)C)c(/C=C/C(=O)c2ccccc2CN(C)C)c1` [B148, (E)-3-{4-[(2-Dimethylamino-ethyl)-methyl-amino]-2′-methyl-biphenyl-3-yl}-1-(2-dimethylaminomethyl-phenyl)-propenone] has a Solubility [2] of 3300 µg/mL (≈ 7.24 mM).
For `CN(C)CCNc1cccc(C(=O)/C=C/c2ccc(Cl)cc2Cl)c1` [B039, (E)-3-(2,4-Dichloro-phenyl)-1-[3-(2-dimethylamino-ethylamino)-phenyl]-40 propenone], the “activity against anaerobic bacteria” value [10] was “activity against all microorganisms within the test panel” and the IC50 (L. major promastigotes; L. major) was 1000 nM.
In the case of `COc1ccc(-c2ccccc2)cc1/C=C/C(=O)c1ccc(N(C)CCN(C)C)cc1` [B073, (E)-1-{4-[(2-Dimethylamino-ethyl)-methyl-amino]-phenyl}-3-(4-methoxy-biphenyl-3-yl)-propenone], the “activity against anaerobic bacteria” value [10] is reported as “activity against all microorganisms within the test panel”.
`COc1ccccc1C(=O)/C=C/c1ccccc1N(C)CCN(C)C` [B056, (E)-3-{2-[(2-Dimethylamino-ethyl)-methyl-amino]-phenyl}-1-(2-methoxy-phenyl)-propenone] showed a Solubility [2] of 3200 µg/mL (≈ 9.45 mM).
`COc1ccc(C(=O)/C=C/c2cc(-c3cc(C)cc(C)c3)ccc2N(C)CCN(C)C)c(CN(C)C)c1` [B114, (E)-3-{4-[(2-Dimethylamino-ethyl)-methyl-amino]-3′,5′-dimethyl-biphenyl-3-yl}-1-(2-dimethylaminomethyl-4-methoxy-phenyl)-propenone] showed a Solubility [2] of 4300 µg/mL (≈ 8.61 mM).
With `COc1cc(/C=C/C(=O)c2cccc(N(C)CCN(C)C)c2)cc(OC)c1` [B047, (E)-3-(3,5-Dimethoxy-phenyl)-1-{3-[(2-dimethylamino-ethyl)-methyl-amino]-phenyl}-propenone] the “times more potent than LicA” value (L. major promastigotes; Leishmania Major, dose-response curve FIG. 7) was 10.
With `CCCCN(CCCC)c1ccc(OC)c(/C=C/C(=O)c2ccccc2NCCN(C)C)c1` [B038, (E)-3-(5-Dibutylamino-2-methoxy-phenyl)-1-[2-(2-dimethylamino-ethylamino)-phenyl]-propenone] the “activity against anaerobic bacteria” value [10] was “activity against all microorganisms within the test panel”.
